Assay results as given in patent publication EP0791603A2, “Pure somatostatin antagonist and methods of use thereof” (American Cyanamid Company, priority 1996, dated 1997).
pIC50, pKi: −log10 of the molar value. Positions of bridges follow the written chain, without caps; N, C: chain ends. Non-standard residues stand in square brackets, D forms with d. Residues, ends and D or L forms follow the SMILES beside them. Phe(4-NO2) = N[C@@H](Cc1ccc([N+](=O)[O-])cc1)C(=O)O; dPhe(4-NO2) = N[C@H](Cc1ccc([N+](=O)[O-])cc1)C(=O)O; 2Nal = N[C@@H](Cc1ccc2ccccc2c1)C(=O)O; Orn = NCCC[C@H](N)C(=O)O

Columns and labels:
[1] = target: SSTR2 (Rattus norvegicus, UniProt P30680); experiment: Competitive binding, displacement of [125I]Tyr11 S-14; set-up: expressed in transfected cells; settings: [125I]Tyr11 S-14 250 pM, room temperature 2 hours; for pIC50: membrane protein, read-out: SSTR2 Binding Affinity IC50; for pKi: calculated by Cheng and Prusoff, read-out: SSTR2 Binding Affinity Ki
Procedure: In this evaluation the concentration of test compound required to displace 50% of somatostatin, SRIF, from the SRIF receptor subtypes expressed in mammalian cells is measured, i.e., the concentration required to inhibit 50% of [^125I] Tyr^11 S-14 (Amersham) (IC50) from binding to the SRIF receptor subtypes.
Radiolabeled SRIF is mixed with pituitary cells, the test compound is added, the mixture is incubated and the radioactivity is measured as compared to control. Reduced radioactivity indicates successful competitive binding of the test compound to the pituitary cell receptor. The concentration of the test compound in nanomolar units required to displace 50% of SRIF from the pituitary cell receptor is calculated and reported in Table II as the IC50 value. Also calculated is the inhibitory constant, Ki.
Tyr^11S-14 (150,000 cpm at 2000 Ci/mmole, 250 pM final concentration). The binding reaction is initiated by adding 2-60µg of membrane protein in a 170 µL volume. Final reaction volume is 200 µl/well. All incubations are carried out at room temperature for 2 hours. Free radioligand is separated from bound ligand by rapid filtration through a glass fiber filter (IH-201-HA) using an Inotech cell harvester. The filter is then washed several times with cold (4°C) binding buffer lacking BSA and protease inhibitors prior to counting in an LKB gamma master counter (78% efficiency). Whatman GFC filters presoaked in 0.3% polyethylenimine (to decrease background) are used.
The IC50 values and Ki values are calculated using the well-known methods described by Y. Cheng and W. H. Prusoff, Biochem. Pharmacol. 22, 3099-3108 (1973), incorporated herein by reference thereto.

[2] = target: T1, rat somatostatin receptor subtype 2 (SSTR2) (Rattus norvegicus, UniProt P30680); experiment: Yeast assay, somatostatin antagonist activity (zone of no growth in presence of S-14); format: cell-based; set-up: key: 1 is minimum antagonist activity; 5 is maximum antagonist activity; -: When no activity is observed, the result is indicated by a dash; settings: rating on a scale of 1-5 from zone of no growth; 5µL of 1 mg/mL S-14 added to each plate; S. Cerevisiae LY364
T1 construct: expressed in transfected cells; host or cells: Saccharomyces cerevisiae LY364
Procedure: To evaluate the somatostatin antagonist activity of a test compound, the above procedure is followed except on day 3, 5µL of 1 mg/mL of somatostatin, S-14, is added to each plate, before applying the test compound. If the test compound is an antagonist of somatostatin, then a zone of no growth will appear within the cell growth zone. This zone of no growth is measured and the test compound is given an antagonist rating on a scale of 1-5 wherein 1 is minimum antagonist activity and 5 is maximum antagonist activity.
The results are shown in Table I. When no activity is observed, the result is indicated by a dash.
(§1) • 1) Inoculate 2 mL SCD-ura-trp liquid medium in Falcon 2051 tube with a single colony taken from a plate containing LY364 (MATa ura3-52 leu2 his3 trp1 lys2 ade2 far1:: LYS2 fus1:: FUS1-HIS3 gpal::hisG sst2::ADE2 bearing the SSTR2 expression plasmid, pJH2, and the G protein expression plasmid, pLP82)cells. • 2) Incubate overnight in a roller drum at 30°C.
(§2) Day 2. • 1) Harvest the cells by centrifugation (3 krpm, 5 min, room temp). • 2) Re-suspend with 5 mL of sterile water. • 3) Harvest again by centrifugation. • 4) Re-suspend in 5 mL SCL-ura-trp liquid medium. • 5) Incubate for 6 hours in a roller drum at 30°C. • 6) Harvest the cells again by centrifugation. • 7) Re-suspend in 5 mL SCG-ura-trp liquid medium. • 8) Incubate overnight in a roller drum at 30°C.
(§3) Day 3. • 1) Autoclave SCG-ura-trp-his pH 6.8 agar medium. • 2) Cool to 55°C in water bath. • 3) Add 1 mL of LY364 culture to 1 liter of agar medium. • 4) Stir vigorously for 1 min. • 5) Pour 150 mL each into five 500 cm^2 plates. • 6) Allow to cool on level surface. • 7) Apply test compound.
(§4) On day 3, add 5µL 1 mg/mL S-14 to each plate. Day 5. Begin checking plates for growth around applied compounds. Day 7. Growth in response to somatostatin should be readily observable. Rate extent of growth or inhibition of growth according to rating scale described hereinabove.

[3] = target: T1, rat somatostatin receptor subtype 2 (SSTR2); experiment: Yeast assay, somatostatin agonist activity (growth zone of modified yeast cells on histidine-free agar); format: cell-based; settings: rating on a scale of 1-5 from zone of growing cells; S. Cerevisiae LY364
Procedure: In this evaluation, yeast cells which have been specifically modified to functionally express rat somatostatin receptor subtype 2 (SSTR2) on their cell surfaces are used. S. Cerevisiae LY364 cells are plated in a standard synthetic agar medium which lacks histidine. In the absence of a somatostatin receptor agonist, the auxotrophic (his3) cells are unable to grow. In the presence of somatostatin, or a somatostatin agonist, the expression of an enzyme (His3p: imidazole-glycerol phosphate dehydratase) which is essential for histidine biosynthesis is induced. The cells become competent to produce histidine, resulting in a zone of growing cells around the applied test compound. The zone is measured and the test compound is given an agonist rating on a scale of 1-5 wherein 1 is minimum agonist activity and 5 is maximum agonist activity.
SCD-ura-trp: • 1) To 500 mL water add: • 1.7 g YNB without amino acids and (NH4)2SO4 • 5.0 g (NH4)2SO4 • 0.7 g CSM-ura-trp • 2) To additional 500 mL water add: 20 g Dextrose • 3) Autoclave separately. Mix.
SCL-ura-trp: • 1) To 500 mL water add: • 1.7 g YNB without amino acids and (NH4)2SO4 • 5.0 g (NH4)2SO4 • 0.7 g CSM-ura-trp • 2) To additional 500 mL water add: 30 mL Lactic Acid • 3) Autoclave separately. Mix.
SCG-ura-trp: • 1) To 500 mL water add: • 1.7 g YNB without amino acids and (NH4)2SO4 • 5.0 g (NH4)2SO4 • 0.7 g CSM-ura-trp • 2) To additional 500 mL water add: 30 g D-Galactose • 3) Autoclave separately. Mix.
SCG-ura-trp-his agar medium, pH 6.8: • 1) To 500 mL water add: • 1.7 g YNB without amino acids and (NH4)2SO4 • 5.0 g (NH4)2SO4 • 0.7 g CSM-ura-trp-his • Stirring Bar • 2) Adjust pH to 6.8-6.9 by dropwise addition of conc. NH4OH • 3) To additional 500 mL water add: 30 g D-Galactose, 20 g Agar • 4) Autoclave separately. • 5) Stir to mix thoroughly. • 6) Equilibrate temperature to 55°C. YNB without amino acids and (NH4)2SO4, CSM-ura-trp, and CSM-ura-trp-his are manufactured by Bio101. Ammonium sulfate ((NH4)2SO4), Dextrose (D-glucose), D-Galactose, and Lactic Acid are manufactured by Sigma.
as §1, §2, §3, §4

SSTR2, sequence (P30680 whole entry): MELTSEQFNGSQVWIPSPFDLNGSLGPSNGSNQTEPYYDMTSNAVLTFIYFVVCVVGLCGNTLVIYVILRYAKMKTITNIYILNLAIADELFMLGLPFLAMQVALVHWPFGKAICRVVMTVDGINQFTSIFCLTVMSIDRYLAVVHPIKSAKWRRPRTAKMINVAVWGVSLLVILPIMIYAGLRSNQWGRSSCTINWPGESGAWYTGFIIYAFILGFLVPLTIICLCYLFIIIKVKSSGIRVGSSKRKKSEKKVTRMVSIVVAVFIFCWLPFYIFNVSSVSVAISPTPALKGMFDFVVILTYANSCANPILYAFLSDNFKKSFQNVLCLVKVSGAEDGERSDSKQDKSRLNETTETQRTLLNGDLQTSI
T1 sequence (P30680 whole entry): as above

| SMILES | pIC50 [1] | pKi [1] | Yeast Assay Antagonist [2] | Yeast Assay Agonist [3] |
| --- | --- | --- | --- | --- |
| C[C@@H](O)[C@@H]1NC(=O)[C@H](CCCCN)NC(=O)[C@@H](Cc2c[nH]c3ccccc23)NC(=O)[C@H](Cc2ccc(O)cc2)NC(=O)[C@H](NC(=O)[C@@H](N)Cc2ccc(I)cc2)CSSC[C@@H](C(=O)N[C@@H](Cc2ccc(O)cc2)C(N)=O)NC1=O | 9.22 | 9.59 |  |  |
| CC(=O)N[C@@H](Cc1ccc(I)cc1)C(=O)N[C@@H]1CSSC[C@@H](C(=O)N[C@H](Cc2ccc(O)cc2)C(N)=O)NC(=O)[C@H]([C@@H](C)O)NC(=O)[C@H](CCCCN)NC(=O)[C@@H](Cc2c[nH]c3ccccc23)NC(=O)[C@H](Cc2ccc(O)cc2)NC1=O | 8.22 | 8.55 | 4 | - |
| CC(=O)N[C@@H](Cc1ccc(I)cc1)C(=O)N[C@@H]1CSSC[C@@H](C(=O)N[C@@H](Cc2ccc(O)cc2)C(N)=O)NC(=O)[C@H]([C@@H](C)O)NC(=O)[C@H](CCCCN)NC(=O)[C@@H](Cc2c[nH]c3ccccc23)NC(=O)[C@H](Cc2ccc(O)cc2)NC1=O |  |  | 1 | - |
| C[C@@H](O)[C@@H]1NC(=O)[C@H](CCCCN)NC(=O)[C@@H](Cc2c[nH]c3ccccc23)NC(=O)[C@H](Cc2ccc(O)cc2)NC(=O)[C@H](NC(=O)[C@@H](N)Cc2ccc3ccccc3c2)CSSC[C@@H](C(=O)N[C@@H](Cc2ccc(O)cc2)C(N)=O)NC1=O (H-[2Nal][dC]Y[dW]KTCY-NH2; disulfide 2-7 (inferred); N-terminus assumed) |  |  | 1 | - |
| NCCCC[C@@H]1NC(=O)[C@@H](Cc2c[nH]c3ccccc23)NC(=O)[C@H](Cc2ccc(O)cc2)NC(=O)[C@H](NC(=O)[C@@H](N)Cc2ccc([N+](=O)[O-])cc2)CSSC[C@@H](C(=O)N[C@@H](Cc2ccc3ccccc3c2)C(N)=O)NC(=O)[C@H](CO)NC1=O (H-[Phe(4-NO2)][dC]Y[dW]KSC[2Nal]-NH2; disulfide 2-7) | 8.00 | 8.35 |  |  |
| C[C@@H](O)[C@@H]1NC(=O)[C@H](CCCNC(=N)N)NC(=O)[C@@H](Cc2c[nH]c3ccccc23)NC(=O)[C@H](Cc2ccc(O)cc2)NC(=O)[C@H](NC(=O)[C@@H](N)Cc2ccc([N+](=O)[O-])cc2)CSSC[C@@H](C(=O)N[C@@H](Cc2ccc(O)cc2)C(N)=O)NC1=O (H-[Phe(4-NO2)][dC]Y[dW]RTCY-NH2; disulfide 2-7 (inferred)) |  |  | 2 | - |
| CC(C)[C@@H]1NC(=O)[C@H](CCCN)NC(=O)[C@@H](Cc2c[nH]c3ccccc23)NC(=O)[C@H](Cc2ccc(O)cc2)NC(=O)[C@H](NC(=O)[C@@H](N)Cc2ccc([N+](=O)[O-])cc2)CSSC[C@@H](C(=O)N[C@@H](Cc2ccc(O)cc2)C(N)=O)NC1=O (H-[Phe(4-NO2)][dC]Y[dW][Orn]VCY-NH2; disulfide 2-7) | 6.95 | 7.30 |  |  |
| CC(C)[C@@H]1NC(=O)[C@H](CCCCN)NC(=O)[C@@H](Cc2c[nH]c3ccccc23)NC(=O)[C@H](Cc2ccc(O)cc2)NC(=O)[C@H](NC(=O)[C@H](N)Cc2ccc([N+](=O)[O-])cc2)CSSC[C@@H](C(=O)N[C@@H](Cc2ccc(O)cc2)C(N)=O)NC1=O (H-[dPhe(4-NO2)][dC]Y[dW]KVCY-NH2; disulfide 2-7) | 7.41 | 7.76 |  |  |
